Experimental data: patent US20080255244A1, “CaM Kinase II Inhibitor Improves Retinoic Acid Therapy and Inhibits the Proliferation of Myeloid Leukemia Cells” (Fred Hutchinson Cancer Research Center, priority 2007, published 2008)

Experiments:
[1] = system: autophosphorylated CaMKIIγ in HL60 cells; assay: Western blot of CaMKIIγ autophosphorylation in HL60 cells; type: cell-based, human; conditions: for activated, autophosphorylated CaMKIIγ level: phospho-T286/7 antibody, ATRA 1 μM, TPA 0.1 μM
Description: (§1) FIG. 7. KN-62 regulates the differentiation of myeloid leukemia cell lines. (A) Wright Giemsa-stained HL-60 cells either (a) uninduced or treated for five days with (b) KN62 or (c) ATRA. (d) CD11b expression in HL-60 cells after five days exposure to KN62 (5 μM) or ATRA (1 μM). (B) Wright-Giemsa stained NB4 cells treated for five days with KN-62 (5 μM) and ATRA as indicated. […] (C) Cd11b expression of NB4 cells treated for five days with the indicated concentrations of RA and/or KN-62. (D) Western blots with the indicated antibodies were performed on HL60 cell lysates following incubation with KN62 for the indicated period of time. (E) Western blots of NB4 cell lysates following a five day incubation with the indicated compounds.
FIG. 9. Terminal differentiation/apoptosis of myeloid leukemia cells is associated with decreased CaMKIIγ activation. (A) Lysates from the HL60, NB4 and U937 myeloid cell lines treated with ATRA (1 μM) for the indicated period of time were subjected to Western blots. (B) Lysates from the indicated myeloid cell lines treated for five days with the indicated concentration of ATRA were subjected to Western blots. (C) Lysates from HL60 cells treated with TPA (0.1 μM) for the indicated time were subjected to Western blots. (D) Lysates from NB4 cells treated with arsenic trioxide (1 uM) for the indicated time were subjected to Western blots.
Protein extracts, Western blotting and co-immunoprecipitations. Westerns and co-immunoprecipitations were performed as previously detailed (Si, J., and Collins, S. J., Blood 100:4401-4409 (2002)).
Antibodies and Western blots. Protein extracts, immunoprecipitations and Western blots were performed as previously detailed (Si J, Collins S J. IL-3-induced enhancement of retinoic acid receptor activity is mediated through Stat5, which physically associates with retinoic acid receptors in an IL-3-dependent manner. Blood 100: 4401-9 (2002)). Antibodies against CaMKI, CaMKIIγ, CaMKIV, c-myc, Stat3, Stat5, calmodulin, as well as the phosphospecific CaMKII (T286, 287) and phosphospecific CaMKI (T177) antibodies were from Santa Cruz Biotechnology. Antibodies against phospho-Stat1 (Ser727), phospho-Stat3 (Ser727 and Tyr 705), phospho-Stat5 (Tyr 694), phospho-p44/42 MAP kinase (Thr202/Tyr 204), p44/42 MAP kinase, phospho-p38 MAP kinase (Thr 180/Tyr 182), phospho-GSK3β (Ser9) were from Cell Signaling Technology. Antibodies against Stat1, GSK3β, β-catenin, PP2Ac, and cyclin D1 were from BD Biosciences.

[2] = system: NB4 promyelocytic leukemia cell line; assay: Differentiation of NB4 cells (morphology, Cd11b); type: cell-based, human; conditions: five days; for morphologic granulocytic differentiation of NB4: single agent, KN-62 5 μM, ATRA 10^−9 M
Description: as §1
Antibodies and chemical reagents. Antibodies against RARα, βtubulin, CaMKIIα, CaMKIIβ, CaMKIIγ, CaMKIIδ, CaMKIα, as well as phosphospecific antibodies against CaMKII were all purchased from Santa Cruz Biotechnology. Antibodies against N-CoR and SMRT were from Upstate Biotechnology. CaMKIV antibody was from BD Biosciences. Anti-FLAG antibody was from Sigma while anti-HA antibody from Novachem. Quantitation of CD11b surface antigen expression was performed utilizing the fluorescent-activated cell sorter (FACS) with PE-conjugated anti-CD11b antibody from Becton Dickinson. KN-62, KN-93 and ionomycin were obtained from Calbiochem. ATRA and calmodulin agarose beads were from Sigma.

RARα/N-CoR interaction = target: T1, RARα/N-CoR interaction (Homo sapiens, UniProt P10276); assay: Mammalian two hybrid, Gal-N-CoR / RARαVP16, in MPRO promyelocytes; type: cell-based; conditions: ATRA six hours, KN62 48 hours
T1 construct: expressed in transfected cells; host or cells: MPRO promyelocytes (murine), electroporated
From the text: Transient transfections and luciferase assays. Murine PT67 fibroblasts were transfected utilizing calcium phosphate precipitation. All hematopoietic cell lines were transiently transfected by electroporation as previously detailed (Johnson, B. et al., Molecular and Cellular Biology 19:3372-3382 (1999)). In the transient transfections the LXSN vector (M28248) served as the expression vector for the wild type and site-directed mutagenized CaMKII and RARα coding region cDNAs. Human cDNA homologous to the coding region of rat CaMKIINα, a CaMKII inhibitory protein, was obtained by RT-PCR from HL60 RNA and cloned into the LXSN vector. The RA-responsive luciferase reporter harbors the RARE from the RARβ2 promoter as previously detailed (Si, J., and Collins, S. J., Blood 100:4401-4409 (2002)). The PON838 plasmid, a β-galactosidase reporter driven by the β-actin promoter, was used as an internal control to determine transfection efficiency for calculating relative luciferase activity.

[3] = system: autophosphorylated CaMKIIγ in TonB210.1 cells; assay: bcr-abl induced CaMKII autophosphorylation in TonB210.1 cells (Western blot); type: cell-based; conditions: TonB210.1 deprived of IL-3 for 24 hours, compound added with doxycycline
[4] = system: Stat3 Ser727 phosphorylation in TonB210 cells; assay: bcr-abl induced Stat3 Ser727 phosphorylation in TonB210.1 cells (Western blot); type: cell-based; conditions: compound added immediately prior to doxycycline, 24 hours
Description: FIG. 13. Stat3 is directly phosphorylated and activated by CaMKIIγ at Ser727. (A, i). Cell lysates from the indicated human leukemia cell lines were subjected to Western blots utilizing the indicated Stat3 antibodies. ii). Cell lysates from the same primary AML samples depicted in FIG. 1B were subjected to Western blots utilizing the indicated Stat3 antibodies. B). The IL-3 dependent TonB210.1 cells were deprived of IL-3 for 24 hours. The cells were then treated with the indicated compounds immediately prior to the addition of doxycycline. After an additional 24 hours cell lysates were harvested and subjected to Western blots with the indicated Stat3 antibodies. C). K562 cells were electroporated with a luciferase reporter driven by a Stat3 response element. The indicated concentrations of KN93 and the Stat 3 inhibitor, cucurbitacin I, were added and relative luciferase activity determined on cell lysates following 48 hours of culture. D, i) K562 cell lysates were immunoprecipitated with control IgG or a Stat3 antibody. The immunoprecipitates were then subjected to Western blot analysis with the indicated antibodies. ii,) A bacterial—expressed GST-Stat3 fusion protein was incubated in vitro with CaMKIIγ that had been immunoprecipitated from HL60 cells. Western blots were then performed on the reaction mixtures utilizing the indicated Stat3 antibodies. iii,). […]

T1 sequence (P10276 whole entry): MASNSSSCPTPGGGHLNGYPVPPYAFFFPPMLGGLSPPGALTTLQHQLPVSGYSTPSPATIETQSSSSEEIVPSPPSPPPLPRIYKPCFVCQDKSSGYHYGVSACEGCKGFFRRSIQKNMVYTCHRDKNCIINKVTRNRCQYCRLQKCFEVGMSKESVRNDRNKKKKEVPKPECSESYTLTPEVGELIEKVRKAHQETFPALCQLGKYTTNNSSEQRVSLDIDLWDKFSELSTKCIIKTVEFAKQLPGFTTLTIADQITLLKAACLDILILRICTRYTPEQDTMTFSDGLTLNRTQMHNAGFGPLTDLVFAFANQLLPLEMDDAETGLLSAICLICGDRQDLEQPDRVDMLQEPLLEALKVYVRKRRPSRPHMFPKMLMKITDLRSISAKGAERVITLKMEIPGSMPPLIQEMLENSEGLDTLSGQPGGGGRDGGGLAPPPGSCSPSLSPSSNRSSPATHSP

## CC1=C(/C=C/C(C)=C/C=C/C(C)=C/C(=O)O)C(C)(C)CCC1 [ATRA, All-trans retinoic acid]
[1]
  total CaMKIIγ level: essentially unchanged
  activated, autophosphorylated CaMKIIγ level: marked decrease
[2]
  morphologic granulocytic differentiation of NB4: little differentiation
RARα/N-CoR interaction
  (UAS)5-driven luciferase reporter activity (RARα/N-CoR interaction): marked decrease

## CN([C@@H](Cc1ccc(OS(=O)(=O)c2cccc3cnccc23)cc1)C(=O)N1CCN(c2ccccc2)CC1)S(=O)(=O)c1cccc2cnccc12 [KN-62]
[1]
  total CaMKIIγ level: did not induce any significant changes
  activated, autophosphorylated CaMKIIγ level: marked reduction
[3]
  bcr-abl (tet/doxycycline) restored CaMKII autophosphorylation: inhibited in a dose dependent manner
[4]
  bcr-abl induced Stat3 Ser727 phosphorylation: blocked
[2]; KN-62 (5 μM) in combination with RA 10^−9M-10^−10M
  granulocytic differentiation of NB4 (morphology, Cd11b surface antigen): marked increase
[2]
  morphologic granulocytic differentiation of NB4: relatively poor inducer
RARα/N-CoR interaction
  (UAS)5-driven luciferase reporter activity (RARα/N-CoR interaction): significantly inhibits

## COc1ccc(S(=O)(=O)N(CCO)c2ccccc2CN(C)C/C=C/c2ccc(Cl)cc2)cc1 [KN-93]
[3]
  bcr-abl (tet/doxycycline) restored CaMKII autophosphorylation: inhibited in a dose dependent manner
[4]
  bcr-abl induced Stat3 Ser727 phosphorylation: blocked
